Assay results: patent US7138231B2 (priority 2000, dated 2006)
Entries after “also recorded” stand apart in the source; their conditions may differ.

Experiments:
[1] = test system: HIV-1 protease site-directed mutants (N88S, L63P, V77I, M46L) in resistance test vector; test: Phenotypic susceptibility assay of resistance test vectors with site-directed mutations in PR
Source text: The resistance test vectors containing a functional luciferase gene cassette were constructed and host cells were transfected with the resistance test vector DNA. […] The resistance test vector viral particles produced by transfecting the resistance test vector DNA into host cells, either in the presence or absence of protease inhibitors, were used to infect target host cells grown either in the absence of NRTI or NNRTI or in the presence of increasing concentrations of the drug. Luciferase activity in infected target host cells in the presence of drug was compared to the luciferase activity in infected target host cells in the absence of drug. […] The IC50 values were determined by plotting percent drug inhibition vs. log10 drug concentration.
Host cells were seeded in 10-cm-diameter dishes and were transfected one day after plating with resistance test vector plasmid DNA and the envelope expression vector. Transfections were performed using a calcium-phosphate co-precipitation procedure. The cell culture media containing the DNA precipitate was replaced with fresh medium, from one to 24 hours, after transfection. Cell culture media containing resistance test vector viral particles was harvested one to four days after transfection and was passed through a 0.45-mm filter before being stored at −80° C. HIV capsid protein (p24) levels in the harvested cell culture media were determined by an EIA method as described by the manufacturer (SIAC; Frederick, Md.). Before infection, target cells (293 and 293/T) were plated in cell culture media. Control infections were performed using cell culture media from mock transfections (no DNA) or transfections containing the resistance test vector plasmid DNA without the envelope expression plasmid. One to three or more days after infection the media was removed and cell lysis buffer (Promega) was added to each well. Cell lysates were assayed for luciferase activity. The inhibitory effect of the drug was determined using the following equation: % luciferase inhibition=[1−(RLUluc[drug]RLUluc)]×100 where RLUluc [drug] is the relative light unit of luciferase activity in infected cells in the presence of drug and RLUluc is the Relative Light Unit of luciferase activity in infected cells in the absence of drug. IC50 values were obtained from the sigmoidal curves that were generated from the data by plotting the percent inhibition of luciferase activity vs. the log10 drug concentration.
Mutations are introduced into the resistance test vector through any of the widely known methods for site-directed mutagenesis. […] A resistance test vector containing the specific mutation or group of mutations are then tested using the phenotypic susceptibility assay described above and the susceptibility profile is compared to that of a genetically defined wild-type (drug susceptible) resistance test vector which lacks the specific mutations.
Resistance test vectors were constructed containing the N88S mutation alone and in combination with other substitutions in PR (L63P, V77I and M46L) known to modulate the HIV susceptibility to PRIs. Mutations were introduced into the resistance test vector using the mega-primer PCR method for site-directed mutagenesis.

[2] = test system: HIV-1 patient viruses with protease L90M; test: Phenotypic susceptibility profiles of 333 patient virus samples with L90M (not 30 or 50); type: cell-based
[3] = test system: HIV-1 variants with protease substitutions; details: cited from earlier work
[4] = test system: HIV-1 patient-derived protease and reverse transcriptase segments (N88S in PR) in resistance test vectors; test: Phenotypic drug susceptibility test with resistance test vectors from patient samples; type: cell-based; details: for Fold Change vs. reference: N88S
[5] = test system: HIV-1 patient viruses with protease L90M; test: Phenotypic susceptibility profiles of 58 patient virus samples with L90M, no other primary mutations; type: cell-based; details: for % FC > 2.5: IDV; for % w with IDV FC > 2.5: L90M

In the case of `CC(C)c1nc(CN(C)C(=O)N[C@H](C(=O)N[C@@H](Cc2ccccc2)C[C@H](O)[C@H](Cc2ccccc2)NC(=O)OCc2cncs2)C(C)C)cs1` [ritonavir], the “change in susceptibility compared to wild type control RTV” value (“change … to wild type control RTV” below) ([1]; N88S-RTV) is reported as “more susceptible”, the “Fold Change vs. reference” value ([1]; site-directed mutation N88S) is reported as 0.36 fold and the “Fold Change vs. reference” value ([1]; site-directed mutations L63P) is reported as 1.27 fold. For the same compound, the “Fold Change vs. reference” value ([1]; site-directed mutations L63P, N88S) was 0.77 fold, the “Fold Change vs. reference” value ([1]; site-directed mutations L63P, V77I) was 1.73 fold and the “Fold Change vs. reference” value ([1]; site-directed mutations L63P, V77I, N88S) was 1.39 fold. For the same compound, the “Fold Change vs. reference” value ([1]; site-directed mutations M46L, L63P, N88S) was 0.85 fold, the “Fold Change vs. reference” value ([1]; site-directed mutations M46L, L63P, V77I, N88S) was 1.33 fold and the “Percent of viruses with indicated primary mutation(s) with reduced susceptibility (fold change in IC50 > 2.5)” value ([2]; L90M) was 93.4%. The “Percent of viruses with indicated primary mutation(s) with reduced susceptibility (fold change in IC50 > 10)” value ([2]; L90M) was 66.1%, the reduction in sensitivity ([3]; I84V substitution) was 10 fold and the level of resistance ([3]; I84V with addition of V82F) was “up to 20 fold”. The “change in drug susceptibility” value ([3]; M46I, L63P, A71V introduced into wild-type NL4-3) was “did not result in significant changes in drug susceptibility”, the “Fold Change vs. reference” value ([4]; patient sample 360, prior PRI IDV, PR I13V, K20M, M36V, N37A, M46I, I62V, L63P, I93L) was 1.49 fold and the “Fold Change vs. reference” value ([4]; patient sample 627, prior PRI IDV, PR I13I/V, E35D, M46L, L63P, I64V, I73V) was 1.50 fold. For the same compound, the “Fold Change vs. reference” value ([4]; patient sample 0732, prior PRI NFV, PR K14R, I15V, K20T, E35D, M36I, R41K, I62V, L63Q) was 1.72 fold, the “Fold Change vs. reference” value ([4]; patient sample 0910, prior PRI NFV, PR M46I, L63P, V77I, I93I/L) was 1.85 fold and the “Fold Change vs. reference” value ([4]; patient sample 1208, prior PRI NFV, PR I62V, L63P, V77I) was 1.22 fold. For the same compound, the “Fold Change vs. reference” value ([4]; patient sample 3542, prior PRI IDV, PR I13V, K14R, N37D, M46I, L63P, I93L) was 3.36 fold, the “Fold Change vs. reference” value ([4]; patient sample 3654, PR I13V, R41K, M46I, L63P, V77I, I93L) was 1.95 fold and the “change in susceptibility” value ([4]; patient sample RTV-3542) was “decrease”.
In the case of `Cc1c(O)cccc1C(=O)N[C@@H](CSc1ccccc1)[C@H](O)CN1C[C@H]2CCCC[C@H]2C[C@H]1C(=O)NC(C)(C)C` [nelfinavir], the “change … to wild type control RTV” value ([1]; L63P-N88S-RTV) is reported as “decreased susceptibility”, the “change … to wild type control RTV” value ([1]; L63P-V77I-N88S-RTV) is reported as “decrease in susceptibility; also recorded: resistance” and the “change … to wild type control RTV” value ([1]; L63P-V77I-RTV) is reported as “slight decrease in susceptibility”. For the same compound, the “change … to wild type control RTV” value ([1]; M46L-L63P-N88S-RTV) was “decrease in susceptibility”, the “change … to wild type control RTV” value ([1]; M46L-L63P-V77I-N88S-RTV) was “decrease in susceptibility” and the “change … to wild type control RTV” value ([1]; N88S-RTV) was “slightly less susceptible”. For the same compound, the “increase in 90% effective concentration” value ([3]; I84V and D30N single mutants and M46I/I84V double mutant of HIV-1 NL4-3) was “fivefold”, the “change in susceptibility” value ([3]; M46I, L63P, or A71V alone) was “no change in susceptibility” and the reduced susceptibility ([3]; variant P22, 22 serial passages of HIV-1 NL4-3) was “sevenfold”. For the same compound, the decreased susceptibility ([3]; variant P28, additional six passages) was 30 fold, the “change in susceptibility” value ([4]; patient sample RTV-360) was “decrease” and the “change in susceptibility” value ([4]; patient sample RTV-627) was “decrease”. For the same compound, the “change in susceptibility” value ([4]; patient sample RTV-0732) was “decrease; also recorded: decreased susceptibility”, the “change in susceptibility” value ([4]; patient sample RTV-0910) was “decrease” and the “change in susceptibility” value ([4]; patient sample RTV-1208) was “decrease”. For the same compound, the “change in susceptibility” value ([4]; patient sample RTV-3542) was “decrease” and the “change in susceptibility” value ([4]; patient sample RTV-3654) was “decrease”.
For `CC(C)(C)NC(=O)[C@@H]1CN(Cc2cccnc2)CCN1C[C@@H](O)C[C@@H](Cc1ccccc1)C(=O)N[C@H]1c2ccccc2C[C@H]1O` [indinavir], the “change … to wild type control RTV” value ([1]; L63P-N88S-RTV) was “decreased susceptibility”, the “change … to wild type control RTV” value ([1]; L63P-V77I-N88S-RTV) was “decrease in susceptibility; also recorded: resistance” and the “change … to wild type control RTV” value ([1]; M46L-L63P-N88S-RTV) was “slight decrease in susceptibility”. For the same compound, the “change … to wild type control RTV” value ([1]; M46L-L63P-V77I-N88S-RTV) was “decrease in susceptibility”, the “wt % > 2.5” value ([2]; Indinavir FC>2.5, L90M, position 10 wild type) was 66.7% and the “wt % > 2.5” value ([2]; Indinavir FC>2.5, L90M, position 13 wild type) was 87.1%. For the same compound, the “wt % > 2.5” value ([2]; Indinavir FC>2.5, L90M, position 20 wild type) was 81.2%, the “wt % > 2.5” value ([2]; Indinavir FC>2.5, L90M, position 46 wild type) was 76.3% and the “wt % > 2.5” value ([2]; Indinavir FC>2.5, L90M, position 53 wild type) was 83.2%. The “wt % > 2.5” value ([2]; Indinavir FC>2.5, L90M, position 54 wild type) was 76.0%, the “wt % > 2.5” value ([2]; Indinavir FC>2.5, L90M, position 63 wild type) was 50.0% and the “wt % > 2.5” value ([2]; Indinavir FC>2.5, L90M, position 71 wild type) was 69.0%. The “wt % > 2.5” value ([2]; Indinavir FC>2.5, L90M, position 73 wild type) was 80.6%, the “wt % > 2.5” value ([2]; Indinavir FC>2.5, L90M, position 74 wild type) was 87.0% and the “wt % > 2.5” value ([2]; Indinavir FC>2.5, L90M, position 82 wild type) was 78.3%. The “wt % > 2.5” value ([2]; Indinavir FC>2.5, L90M, position 84 wild type) was 79.0%, the “wt % > 2.5” value ([2]; Indinavir FC>2.5, L90M, position 95 wild type) was 83.5% and the “mt % > 2.5” value ([2]; Indinavir FC>2.5, listed as 90: all samples with L90M) was 84.7%. The “wt % > 10” value ([2]; Indinavir FC>10, L90M, position 10 wild type) was 23.1%, the “wt % > 10” value ([2]; Indinavir FC>10, L90M, position 20 wild type) was 47.2% and the “wt % > 10” value ([2]; Indinavir FC>10, L90M, position 36 wild type) was 48.9%. The “wt % > 10” value ([2]; Indinavir FC>10, L90M, position 46 wild type) was 44.4%, the “wt % > 10” value ([2]; Indinavir FC>10, L90M, position 54 wild type) was 36.3% and the “wt % > 10” value ([2]; Indinavir FC>10, L90M, position 55 wild type) was 51.8%. For the same compound, the “wt % > 10” value ([2]; Indinavir FC>10, L90M, position 62 wild type) was 45.3%, the “wt % > 10” value ([2]; Indinavir FC>10, L90M, position 71 wild type) was 37.0% and the “wt % > 10” value ([2]; Indinavir FC>10, L90M, position 72 wild type) was 50.0%. For the same compound, the “wt % > 10” value ([2]; Indinavir FC>10, L90M, position 74 wild type) was 57.3%, the “wt % > 10” value ([2]; Indinavir FC>10, L90M, position 82 wild type) was 39.9% and the “wt % > 10” value ([2]; Indinavir FC>10, L90M, position 84 wild type) was 46.3%. The “wt % > 10” value ([2]; Indinavir FC>10, L90M, position 85 wild type) was 52.3%, the “wt % > 10” value ([2]; Indinavir FC>10, L90M, position 95 wild type) was 51.6% and the “mt % > 10” value ([2]; Indinavir FC>10, listed as 90: all samples with L90M) was 53.8%. For the same compound, the loss of susceptibility ([3]; mutant HIV-1 clones with mutations at residues 46, 63, and 82) was “fourfold”, the “loss of susceptibility compared with the wild type” value ([3]; selection in MT-4 cells, substitutions at residues 32, 46, 71, and 82) was 6.1 fold and the “change in susceptibility” value ([4]; patient sample RTV-360) was “decrease”. The “change in susceptibility” value ([4]; patient sample RTV-627) was “decrease”, the “change in susceptibility” value ([4]; patient sample RTV-0732) was “decrease; also recorded: decreased susceptibility” and the “change in susceptibility” value ([4]; patient sample RTV-0910) was “decrease”. The “change in susceptibility” value ([4]; patient sample RTV-1208) was “decrease”, the “change in susceptibility” value ([4]; patient sample RTV-3542) was “decrease” and the “change in susceptibility” value ([4]; patient sample RTV-3654) was “decrease”. For the same compound, the “% FC > 2.5” value ([5]; L90M + mutation at position 46) was 88%, the “% FC > 2.5” value ([5]; L90M + mutation at position 71) was 89% and the “% FC > 2.5” value ([5]; L90M + mutation at position 71, listed as IDV) was 89%. For the same compound, the “% FC > 2.5” value ([5]; L90M + mutation at position 73) was 89%, the “% FC > 2.5” value ([5]; L90M + mutation at position 73, listed as IDV) was 89% and the “% FC > 2.5” value ([5]; listed as 90: all viruses with L90M) was 69%. The “% w with IDV FC > 2.5” value ([5]; number of secondary mutations 0) was 69%, the “% w with IDV FC > 2.5” value ([5]; number of secondary mutations 1) was 70% and the “% w with IDV FC > 2.5” value ([5]; number of secondary mutations 2) was 70%. For the same compound, the “% w with IDV FC > 2.5” value ([5]; number of secondary mutations 3) was 80%, the “% w with IDV FC > 2.5” value ([5]; number of secondary mutations 4) was 87% and the “% w with IDV FC > 2.5” value ([5]; number of secondary mutations 5) was 100%. For the same compound, the “% w with IDV FC > 2.5” value ([5]; number of secondary mutations 6) was 100%.
